From ChEMBL document CHEMBL1201862, “PubChem BioAssay data set” (2004)
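Compound exposure: 48 hours, 5 concentrations, 96-well plates. GI50 marks 50% less growth.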 Active and inactive are the calls of the source. Cut-off read from the data, not from the text of the source: active = GI50 up to about 1.1 µM and inactive = higher.

Legend:
Experiment in all cases: growth of human tumour cells (NCI), 48 h
786-0 = test system: 786-0
A498 = test system: A498
A549 = test system: A549
ACHN = test system: ACHN
BT-549 = test system: BT-549
CAKI-1 = test system: CAKI-1
CCRF-CEM = test system: CCRF-CEM
COLO 205 = test system: COLO 205
EKVX = test system: EKVX
HCC 2998 = test system: HCC 2998
HCT-116 = test system: HCT-116
HCT-15 = test system: HCT-15
HL-60 = test system: HL-60
HOP-62 = test system: HOP-62
HOP-92 = test system: HOP-92
HT-29 = test system: HT-29
Hs-578T = test system: Hs-578T
IGROV-1 = test system: IGROV-1
K562 = test system: K562
KM12 = test system: KM12
LOX IMVI = test system: LOX IMVI
M14 = test system: M14
MCF7 = test system: MCF7
MDA-MB-231 = test system: MDA-MB-231
MDA-MB-435 = test system: MDA-MB-435
MDA-N = test system: MDA-N
MOLT-4 = test system: MOLT-4
Malme-3M = test system: Malme-3M
NCI-H226 = test system: NCI-H226
NCI-H23 = test system: NCI-H23
NCI-H460 = test system: NCI-H460
NCI-H522 = test system: NCI-H522
NCI/ADR-RES = test system: NCI/ADR-RES
OVCAR-3 = test system: OVCAR-3
OVCAR-4 = test system: OVCAR-4
OVCAR-5 = test system: OVCAR-5
OVCAR-8 = test system: OVCAR-8
PC-3 = test system: PC-3
RPMI-8226 = test system: RPMI-8226
RXF 393 = test system: RXF 393
SF-268 = test system: SF-268
SF-295 = test system: SF-295
SF-539 = test system: SF-539
SK-MEL-28 = test system: SK-MEL-28
SK-MEL-2 = test system: SK-MEL-2
SK-MEL-5 = test system: SK-MEL-5
SK-OV-3 = test system: SK-OV-3
SN12C = test system: SN12C
SNB-19 = test system: SNB-19
SNB-75 = test system: SNB-75
SR = test system: SR
SW-620 = test system: SW-620
T47D = test system: T47D
TK-10 = test system: TK-10
U-251 = test system: U-251
UACC-257 = test system: UACC-257
UACC-62 = test system: UACC-62
UO-31 = test system: UO-31

## C/C(=N\Nc1nc2cc(Cl)ccc2s1)c1ccccn1
786-0
  GI50: 617 nM (active)
A498
  GI50: 1610 nM (inactive)
A549
  GI50: 755 nM (active)
ACHN
  GI50: 191 nM (active)
BT-549
  GI50: 4900 nM (inactive)
CAKI-1
  GI50: 65.3 nM (active)
CCRF-CEM
  GI50: 373 nM (active)
COLO 205
  GI50: 90 nM (active)
EKVX
  GI50: 129 nM (active)
HCC 2998
  GI50: 11500 nM (inactive)
HCT-116
  GI50: 301 nM (active)
HCT-15
  GI50: 111 nM
HL-60
  GI50: 140 nM (active)
HOP-62
  GI50: 904 nM (active)
HOP-92
  GI50: 473 nM (active)
HT-29
  GI50: 82.4 nM (active)
Hs-578T
  GI50: 2890 nM (inactive)
IGROV-1
  GI50: 127 nM (active)
K562
  GI50: 136 nM (active)
KM12
  GI50: 630 nM (active)
LOX IMVI
  GI50: 459 nM (active)
M14
  GI50: 443 nM (active)
MCF7
  GI50: 86.7 nM (active)
MDA-MB-231
  GI50: 405 nM (active)
MDA-MB-435
  GI50: 1830 nM (inactive)
MDA-N
  GI50: 1730 nM (inactive)
MOLT-4
  GI50: 34.6 nM (active)
Malme-3M
  GI50: 834 nM (active)
NCI-H226
  GI50: 320 nM (active)
NCI-H23
  GI50: 403 nM (active)
NCI-H460
  GI50: 673 nM (active)
NCI-H522
  GI50: 189 nM (active)
NCI/ADR-RES
  GI50: 343 nM (active)
OVCAR-3
  GI50: 94.6 nM (active)
OVCAR-4
  GI50: 390 nM (active)
OVCAR-5
  GI50: 2770 nM (inactive)
OVCAR-8
  GI50: 177 nM (active)
PC-3
  GI50: 1350 nM (inactive)
RPMI-8226
  GI50: 264 nM (active)
RXF 393
  GI50: 1990 nM (inactive)
SF-268
  GI50: 365 nM (active)
SF-295
  GI50: 914 nM (active)
SF-539
  GI50: 1210 nM (inactive)
SK-MEL-28
  GI50: 2560 nM (inactive)
SK-MEL-2
  GI50: 442 nM (active)
SK-MEL-5
  GI50: 428 nM (active)
SK-OV-3
  GI50: 404 nM (active)
SN12C
  GI50: 372 nM (active)
SNB-19
  GI50: 1010 nM (active)
SNB-75
  GI50: 1720 nM (inactive)
SR
  GI50: 228 nM (active)
SW-620
  GI50: 817 nM (active)
T47D
  GI50: 402 nM (active)
TK-10
  GI50: 2740 nM (inactive)
U-251
  GI50: 877 nM (active)
UACC-257
  GI50: 519 nM (active)
UACC-62
  GI50: 673 nM (active)
UO-31
  GI50: 68.5 nM (active)
